From patent US10632192B2, “Pyrimidine compounds and their use as vaccine adjuvants” (Sumitomo Dainippon Pharma Co., Ltd., priority 2015, dated 2020) come the findings set out here.

In assay [1] the test system is spleen cells. The assay can be described thus: CD8-positive effector memory T lymphocytes in spleen cells of immunized mice (flow cytometry). Type of assay: in vivo, mouse. Particulars: spleen cells of mice of Test Example 1, CD44/CD62L staining; vs negative control group; FIG. 5. As to the method:
(§1) For the first immunization, an equal volume mixture (100 μL/mouse) of ovalbumin (OVA) (1 mg/mL) and a compound of the above Examples (0.1 mg/mL) was administered intramuscularly to gastrocnemius muscle of C57BL/6 mouse. Two weeks later, an equal amount of the same mixture was administered intramuscularly to the gastrocnemius muscle for booster immunization. One week after the booster immunization, cardiac blood was collected under isoflurane inhalation anesthesia, and plasma was collected by centrifugation. OVA-specific IgG value in plasma was measured by ELISA using mouse anti-ovalbumin IgG ELISA kit (Alpha Diagnostic) (See FIG. 1).
The spleen cells were further incubated with antibody cocktail eFluor450-labeled anti-mouse CD3e antibody, Alexa Fluor647-labeled anti-mouse CD8 antibody, PE-Cy7-labeled anti-mouse CD44 antibody, PerCP-Cy5.5-labeled anti-mouse CD62L antibody and Fixable Viability Dye520 (eBioscience). Data acquisition and analysis were performed using FACS Cant II (BD Biosciences) and FLOWJO software (TreeStar).

The test system of assay [2] is C57BL/6 mouse. The assay can be described thus: OVA-specific IgG1 and IgG2c in immunized mouse plasma (ELISA). The note with it: intramuscular OVA + compound, prime and booster, vs negative control group, FIG. 2. The format is in vivo. As to the method:
as §1
Also, the OVA-specific IgG1 and IgG2c values in the immunized mouse plasma were determined by ELISA method. Specifically, OVA solution (SIGMA) was added to a 96-well plate, followed by blocking with 1% skim milk (Wako Pure Chemical Industries, Ltd.). A plasma sample, which was diluted with phosphate buffer, and then a secondary antibody (goat anti-mouse IgG1 (Jackson) or IgG2c (Southern Bio)) were added. SureBlue™ TMB microwell peroxidase substrate (KPL) was added, and the product of the enzyme reaction was measured by microplate reader (See FIG. 2).

In assay [3] the test system is spleen cells. The assay can be described thus: OVA-specific multifunctional CD4-positive T lymphocytes in spleen cells of immunized mice (flow cytometry). Type of assay: in vivo, mouse. The note with it: spleen cells of mice of Test Example 1, cultured overnight with OVA and Brefeldin A; IFN-γ, IL-2, TNF-α staining; vs negative control group; FIG. 3. As to the method:
as §1
The spleen cells were prepared from the mouse of Test Example 1. The cells were added with OVA and Brefeldin A (eBioscience) and cultured overnight. The cultured cells were harvested, stained with APC-labeled anti-mouse CD3e antibody, FITC-labeled anti-mouse CD4 antibody and Fixable Viability Dye Fluor® 450 (eBioscience), and fixed in Fixation/Permeabilization buffer (eBioscience). After treatment in Permeabilization buffer (eBioscience), the cells were stained with antibody cocktail PerCP-Cy5.5-labeled anti-IFN-γ antibody, PE-Cy7-labeled anti-IL-2 antibody, and PE-labeled TNF-α (eBioscience). Data acquisition and analysis were performed using FACS Cant II (BD Biosciences) and FLOWJO software (TreeStar).

The subject of assay [4] is C57BL/6 mouse. The assay can be described thus: OVA-specific IgG in plasma of mice immunized with OVA plus compound (ELISA). Particulars: intramuscular, equal volume mixture (100 μL/mouse) of OVA 1 mg/mL and compound 0.1 mg/mL, booster two weeks later, plasma one week after booster, vs negative control group, FIG. 1. The format is in vivo. As to the method: as §1
The test system of assay [5] is spleen cells. The assay can be described thus: MHC-restricted OVA-specific CD8-positive T lymphocytes in spleen cells of immunized mice (tetramer staining). The note with it: spleen cells of mice of Test Example 1, H-2Kb OVA Tetramer-SINFEKL; vs negative control group; FIG. 4. Type of assay: in vivo, mouse. The method, then: as §1
The spleen cells were also stained with eFluor 450-labeled anti-mouse CD3e antibody, Alexa Fluor® 647-labeled anti-mouse CD8 antibody, PE-labeled H-2Kb OVA Tetramer-SINFEKL (MBL) and Flexable Viability Dye eFluor 520 (eBioscience). Data acquisition and analysis were performed using FACS Cant II (BD Biosciences) and FLOWJO software (TreeStar).

As for `CCC[C@@H](CCO)Nc1nc(N)nc(C)c1Cc1ccc(CN(C)CCNC(=O)CC/C(C)=C/CC/C(C)=C/CC/C(C)=C/CC/C=C(\C)CC/C=C(\C)CCC=C(C)C)cc1` [Example 1, (4E,8E,12E,16E,20E)-N-{2-[{4-[(2-amino-4-{[(3S)-1-hydroxyhexan-3-yl]amino}-6-methylpyrimidin-5-yl)methyl]benzyl}(methyl)amino]ethyl}-4,8,12,17,21,25-hexamethylhexacosa-4,8,12,16,20,24-hexaenamide], the “proportion of CD8-positive effector memory T lymphocytes” value in the assay on spleen cells [1] is listed as “significantly increased”. Also, in the assay on C57BL/6 mouse [2], the “ratio of OVA-specific IgG2c to IgG1 in plasma” value is recorded as “significantly increased”. In addition, the “proportion of OVA-specific multifunctional CD4-positive T lymphocytes” value with spleen cells [3] is recorded as “significantly increased”. Moreover, the “OVA-specific IgG production in plasma” value with C57BL/6 mouse [4] is reported as “induced significant OVA-specific IgG production”. Moreover, the “proportion of MHC-restricted OVA-specific CD8-positive T lymphocytes” value in the assay on spleen cells [5] is “significantly increased”.
As to `CCC[C@@H](CO)Nc1nc(N)nc(C)c1Cc1ccc(C(=O)NCCNC(=O)CC/C(C)=C/CC/C(C)=C/CC/C(C)=C/CC/C=C(\C)CC/C=C(\C)CCC=C(C)C)cc1OC` [Example 4, 4-[(2-amino-4-{[(25)-1-hydroxypentan-2-yl]amino}-6-methylpyrimidin-5-yl)methyl]-N-(2-{[(4E,8E,12E,16E,20E)-4,8,12,17,21,25-hexamethylhexacosa-4,8,12,16,20,24-hexaenoyl]amino}ethyl)-3-methoxybenzamide], the “proportion of CD8-positive effector memory T lymphocytes” value in the assay on spleen cells [1] is “significantly increased”. Moreover, the “ratio of OVA-specific IgG2c to IgG1 in plasma” value with C57BL/6 mouse [2] is recorded as “significantly increased”. In the assay on spleen cells [3], the “proportion of OVA-specific multifunctional CD4-positive T lymphocytes” value is recorded as “significantly increased”. Further, the “OVA-specific IgG production in plasma” value in the assay on C57BL/6 mouse [4] was “induced significant OVA-specific IgG production”. Further, the “proportion of MHC-restricted OVA-specific CD8-positive T lymphocytes” value with spleen cells [5] is on record as “significantly increased”.
